Test results published in PubChem BioAssay (NCI).
“And” between values parts separate entries of the source, which are not always exact repeats. Equal entries are not always repeated.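 Compound exposure: 48 hours, 5 concentrations, 96-well plates. GI50 marks 50% less growth. TGI denotes the concentration required for complete inhibition of growth.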 *1 amine or outer side, *2 acyl side, *3 side chain or, on linkers, in order; H or OH if unused. Where a SMILES comes first, the peptide text is derived from it. Bridges are numbered along the chain shown (N, C = ends). Roman numbers before positions name the chains, in order. [ ]: non-standard residue; d: D form. Actinocin(9to1) = Cc1c2oc3c(C)ccc(C(=O)[*:1])c3nc-2c(C(=O)[*:2])c(N)c1=O; NMeF = CN[CH](Cc1ccccc1)C(=O)O; Sar = CNCC(=O)O

Assays:
Test in all cases: NCI-60 cell line screen, 48 h
NCI/ADR-RES ovarian = tested on: NCI/ADR-RES ovarian
HCT-15 colon = tested on: HCT-15 colon
HT29 colon = tested on: HT29 colon
SW-620 colon = tested on: SW-620 colon
UACC-62 melanoma = tested on: UACC-62 melanoma
DU-145 prostate = tested on: DU-145 prostate
EKVX NSCLC = tested on: EKVX NSCLC
MCF7 breast = tested on: MCF7 breast
SF-268 CNS = tested on: SF-268 CNS
TK-10 renal = tested on: TK-10 renal

SMILES	GI50 (NCI/ADR-RES ovarian) [µM]	TGI (NCI/ADR-RES ovarian) [µM]	GI50 (HCT-15 colon)	TGI (HCT-15 colon) [µM]	GI50 (HT29 colon)	TGI (HT29 colon) [µM]	GI50 (SW-620 colon) [µM]	TGI (SW-620 colon)	GI50 (UACC-62 melanoma)	TGI (UACC-62 melanoma)	GI50 (DU-145 prostate) [µM]	TGI (DU-145 prostate)	GI50 (EKVX NSCLC)	TGI (EKVX NSCLC)	GI50 (MCF7 breast) [µM]	TGI (MCF7 breast) [µM]	GI50 (SF-268 CNS) [µM]	TGI (SF-268 CNS) [µM]	GI50 (TK-10 renal)	TGI (TK-10 renal) [µM]
COc1ccc(Cn2cc3c(c2-c2cc(OC)c(OC)c(OC)c2)CCc2cnoc2-3)cc1	0.242	> 100	0.354 µM	> 100	0.335 µM	10.3	0.314	> 100 µM	0.342 µM	> 23 µM	0.309	> 100 µM	0.397 µM	> 100 µM	0.163	> 100	1.18	> 100	0.842 µM	> 100
O=C1C(Cl)=C(Nc2cccc(O)c2)C(=O)N1Cc1ccc(Cl)cc1Cl	2	26.6	7.45 µM	22.6	1.29 µM	90.3	0.565	15.7 µM	3.49 µM	14.7 µM	11.3	24.2 µM	10 µM	26.6 µM	10.9	30.7	6.09	21.9	13.6 µM	28.4
CCN(CC)C(=S)[S][Bi]([S]C(=S)N(CC)CC)[S]C(=S)N(CC)CC	0.277	0.85	0.164 µM	0.348	0.052 µM	0.229	0.0916	0.229 µM	0.252 µM	0.806 µM	1.28	2.59 µM	0.282 µM	0.732 µM	0.119	0.349	0.455	1.77	0.197 µM	0.374
O=C(/C=C\c1ccccc1)N1CCc2ccccc2C1		> 100		> 100		> 100		> 100 µM		> 100 µM		> 100 µM		> 100 µM		> 100		> 100		> 100
Cc1cccc(Cc2cnc(NC(=O)CCc3ccc(C)o3)s2)c1	0.228	> 100	0.0729 µM	> 100	0.169 µM	4.04	0.142	> 100 µM	0.16 µM	> 100 µM	0.38	> 95.8 µM	0.585 µM	> 100 µM	0.0495	> 100	0.903	> 100	1.49 µM	> 100
Cc1ccc(Sc2cc3c(oc2=O)-c2ccccc2OC3O)cc1 (stereo unspecified)	25.2	60.5	28.3 µM	76.3	30.9 µM	> 100	22.4	52.3 µM	21.2 µM	49.8 µM	21.8	45.2 µM	21.9 µM	43.9 µM	35.9	> 100	30.3	88.6	33.8 µM	84.9
Oc1ccc(Cc2cc(Cl)cc(Cl)c2O)cc1Cl		38.6		35.2		43.9		41.2 µM		27.9 µM		24.4 µM		40.2 µM		32.5		31		30.6
Cc1cc(Nc2cc(N)ncn2)c(=O)n2c1C(=O)NC21CCCCC1	> 100	> 100	> 100 µM	> 100	> 100 µM	> 100	> 100	> 100 µM	> 100 µM	> 100 µM	> 100	> 100 µM	> 100 µM	> 100 µM	> 100	> 100	76.9	> 100	> 100 µM	> 100
CC(=O)c1cc(O)c2ccccc2c1O	24.5	67.5	20.5 µM	44.1	15.5 µM	37	18.4	49.2 µM	16.2 µM	32.7 µM	18.9	33 µM	22.1 µM	81.2 µM	14.8	36.9	18.8	33.4	17 µM	33.1
O=C(O)C(Oc1nc(=S)[nH]c(=S)[nH]1)(c1ccc(Cl)cc1)c1ccc(Cl)cc1		> 100		> 100		> 100		> 100 µM		> 100 µM		> 100 µM		> 100 µM		> 100		> 100		> 100
COc1cc(NC(=O)C2=C(N3CCOCC3)/C(=C/c3ccc(Cl)cc3)CC2)cc(OC)c1OC	42.5	> 100	> 100 µM	> 100	> 100 µM	> 100	> 100	> 100 µM	> 100 µM	> 100 µM	> 100	> 100 µM	24.9 µM	> 100 µM	> 100	> 100	20	> 100	27.9 µM	86.5
Nc1ncc(-c2cccc(S(N)(=O)=O)c2)c2scc(-c3ccc(F)c(Cl)c3)c12	7.14	> 25	6.59 µM	> 25	5 µM	15.3	6.21	14.3 µM	5.17 µM	11.7 µM	5.55	15.3 µM	7.75 µM	> 24.2 µM	5.93	15.9	5.93	> 25	6.58 µM	16.4
O=c1oc2c(C(F)(F)F)cccc2cc1-c1csc(Nc2ccc(OCCF)cc2)n1	0.0401	66.5	0.0389 µM	> 100	0.032 µM	1.02	0.0468	> 100 µM	0.0507 µM	> 38.9 µM	0.0462	> 50.8 µM	0.0556 µM	> 100 µM	0.0427	> 37.6	0.086	> 60.5	0.0838 µM	81
Cc1coc2c1C(OC(=O)C(C)C)C1(C)C(C)CCC(O)C1C2=O (stereo unspecified)		> 100		> 100		> 100		> 100 µM		> 100 µM		> 100 µM		> 100 µM		> 100		> 100		> 100
CC(O)c1cc(C(=O)N[C@@H](C)Cn2ccc(-c3ccc(C#N)c(Cl)c3)n2)n[nH]1 (stereo partly specified)	> 100	> 100	> 100 µM	> 100	> 100 µM	> 100	> 100	> 100 µM	34.3 µM	> 100 µM	> 100	> 100 µM	36.8 µM	> 100 µM	30.7	> 100	> 100	> 100	> 100 µM	> 100
Oc1ccc(N=Nc2ccccn2)c(O)c1	0.503	> 100	0.423 µM	> 100	0.434 µM	> 100	0.757	> 100 µM	0.576 µM	58.2 µM	1.55	> 100 µM	0.407 µM	> 100 µM	0.677	> 100	0.732	> 100	0.661 µM	> 100
COC(=O)C(C)NC(=O)c1ccccc1I(OS(=O)(=O)C(F)(F)F)c1ccccc1 (stereo unspecified)	20.1	42.9	16 µM	41.7	23.1 µM	> 61.4	20.9	44 µM	17.3 µM	35 µM	25.6	> 71.1 µM	25.6 µM	88.9 µM	22.3	> 65.5	17.6	53.2	21 µM	57.6
Cc1c([N+](=O)[O-])oc2ccc3ccccc3c12		> 100		> 100		> 100		> 100 µM		> 100 µM		83.7 µM		> 100 µM		93.7		> 100		> 100
CC(C)=CCCC(C)C1=C(O)C(=O)C(C)=CC1=O (stereo unspecified)		> 49.1		5.75		> 64		> 50.4 µM		27.9 µM		33.3 µM		> 49.8 µM		31.1		56.6		23.5
Cc1c2oc3c(C)ccc(C(=O)NC4C(=O)NC(C(C)C)C(=O)N5CCCC5C(=O)N(C)CC(=O)N(C)C(Cc5ccccc5)C(=O)OC4C)c3nc-2c(C(=O)NC2C(=O)NC(C(C)C)C(=O)N3CCCC3C(=O)N(C)CC(=O)N(C)C(Cc3ccccc3)C(=O)OC2C)c(N)c1=O (stereo unspecified) (I: TVP[Sar][NMeF] / II: TVP[Sar][NMeF]; ester I:1-I:C, II:1-II:C; linker I:N-II:N via Actinocin(9to1); configuration not given here)		> 1	< 0.0147 µM and 0.0622 µM	> 31.6	< 0.01 µM and 0.00123 µM			1.27 µM and 0.139 µM	< 0.01 µM and 0.00426 µM	< 0.01 µM and 0.0188 µM		< 0.01 µM and 0.0698 µM	< 0.01 µM and 0.0389 µM	0.0931 µM and > 0.603 µM	0.00126	0.0136		> 0.674	< 0.01 µM and 0.049 µM	> 1
C=C1C(=O)O[C@H]2[C@H]1CC/C(COC(=O)NCc1ccc(Cn3c(=O)sn(-c4ccccc4)c3=O)cc1)=C\CC[C@@]1(C)O[C@@H]21	19.1	63.3	1.94 µM	3.88	2.15 µM	4.14	1.91	3.78 µM	2.04 µM	4.15 µM	1.71	3.12 µM	1.85 µM	4.38 µM	1.59	3.55	2.21	5	2.21 µM	4.05
C[C@@H]1COCCN1c1cc(C2(O)C[C@H]3CC[C@@H](C2)O3)c2cnn(-c3ccn[nH]3)c2n1 (stereo partly specified)	0.154	1.1	0.0394 µM	> 42.2	0.181 µM	> 100	0.187	> 37.7 µM	0.05 µM	0.384 µM	0.0553	2.46 µM	0.139 µM	0.845 µM	< 0.0106	1.38	0.111	2.04	0.0515 µM	1.01
C/C(=N\NC(=S)N(C)C)c1ccccn1	0.000321	2.31	0.00191 µM	16.6	0.000846 µM	15.8		35.4 µM		2.38 µM		0.993 µM and 3.17 µM	0.143 µM	3.07 µM		13.4		11.7	0.00279 µM	10.7
C=CC1=C(C)C2=NC1=CC1=NC(=C(CC)/C1=C\O)C=C1N=C3C(=C1C)C(=O)[C@H](C(=O)OC)C3=C1NC(=C2)[C@@H](C)[C@@H]1CCC(=O)O		> 100		> 100		> 100		> 100 µM		> 100 µM		> 100 µM		> 100 µM		> 100		> 100		> 100
CN(C)CCCn1c(-c2nonc2N)nc2cnccc21	> 25	> 25	> 25 µM	> 25	> 25 µM	> 25	> 25	> 25 µM	> 25 µM	> 25 µM	> 25	> 25 µM	> 25 µM	> 25 µM	> 25	> 25	> 25	> 25	> 9.98 µM	> 25
N#CC1C=Cc2c(ccc3ccccc23)N1C(=O)c1ccccc1 (stereo unspecified)	0.187		0.184 µM	> 100	0.0701 µM	3.82	0.0657	> 75.2 µM	0.243 µM	> 100 µM	0.26	1.97 µM	0.31 µM		0.0413	> 100	1.05	> 100	3.78 µM	> 65.8
CC(=C/c1ccccc1)/C=C1/NC(=S)N(/C=C2\C(=O)Oc3ccccc3C2=O)C1=O		> 100		> 100	> 100 µM	> 100	> 100	> 100 µM	40.7 µM	> 100 µM		> 100 µM		> 100 µM		> 100		> 100		> 100
